From patent US20130344595A1, “CULTURE MEDIA FOR DEVELOPMENTAL CELLS CONTAINING ELEVATED CONCENTRATIONS OF LIPOIC ACID” (Vitrolife Sweden AB, priority 2007, published 2013)
Marks after values point to notes of the source that are not given here.

Key:
8-cell hamster embryos = conditions: omission from Ham's F10 medium; cited from earlier work
CF1 mouse embryos [1] = assay: Blastocyst development and cell number of mouse embryos cultured with lipoic acid at 20% or 5% O2 (Example 1); type: cell-based
Description: The following procedure was carried out. Lipoic acid was dissolved in ethanol. A 100 mM working solution in 100% EtOH was prepared with appropriate dilutions made to the culture media thereafter (1 μM, 10 μM and 100 μM final concentrations). A vehicle control, equivalent to the dilution of the highest concentration solution (0.1%), was used in all culture experiments. Zygotes were collected from 4-week-old CF1 outbred female mice. Cumulus-enclosed zygotes were collected at 21 h post hCG and denuded with 1 mg/mL hyaluronidase in G-MOPS supplemented with 5 mg/mL human serum albumin. Cultures were incubated at either 5% or 20% O2. After four days of culture, blastocyst development was analyzed and cell number was counted in 200 cultured embryos per treatment.
The results are shown in FIGS. 1 (20% O2) and 2 (5% O2). The data are based on 200 embryos cultured per study. […] Furthermore, the beneficial effect of lipoic acid was lost at higher concentrations. […] The data for FIGS. 1 and 2 are presented in Tables 6 and 7, respectively, which also provide the results for the trophectoderm, inner cell mass (ICM) and ICM ratio.

CF1 mouse embryos [2] = assay: Sequential G1/G2 culture of mouse embryos, G1 with or without 10 μM lipoic acid (Example 2); type: cell-based; conditions: low O2
Description: CF1 mouse embryos were grown in either G1 alone or G1 plus 10 μM lipoic acid. After 48 hours, embryos from both treatment groups were moved to G2. All cultures were incubated in low O2. Compaction rates were assessed and blastocyst developmental rates were measured at 71 and 78 hours. Blastocysts were then differentially stained and counted.

CF1 mouse zygote = assay: Effective concentration range of lipoic acid on mouse zygote development at 20% oxygen (Example 3); type: cell-based; conditions: for Day 3 (% compacting) / Day 4 (% Total Blast) / Day 5 (% Hatching) / Day 5 (% Total Blast) / Total Cell Number: 20% oxygen
From the text: The effective range of lipoic acid concentrations to enhance blastocyst development and cell number was established using CF1 mouse embryos.

[3] = system: reactive oxygen species (ROS); assay: ROS generation in culture medium by UV photo-oxidation, H2DFFDA fluorescent dye (Example 4); conditions: all concentrations; compared to vehicle group; UV photo-oxidation in GMOPS-Plus
Description: In order to determine whether the lipoic acid is having an antioxidant effect, a series of experiments were performed using the fluorescent dye […] (H2DFFDA), which reacts with reactive oxygen species (ROS) intermediates. 200 μM H2DFFDA in DMSO was added to GMOPS-Plus (available from Vitrolife). Lipoic acid dissolved in EtOH with the final concentration within the media being 0.1% EtOH. Each drop was then photo-oxidized with 4 successive 2.5 minute exposures using UV light to generate ROS.
All results are based on comparison to the vehicle group ([…]), which was not significant in comparison to the control group.

rabbit morulae = conditions: omission from Ham's F10 medium; cited from earlier work
human embryos = assay: Human embryo development in G1 medium with 10 μM lipoic acid (Example 5); type: cell-based; conditions: G1 medium with 10 μM lipoic acid versus G1 free of lipoic acid
Description: In accordance with the present invention, the effect of lipoic acid-containing culture media on human embryo development is examined. Good prognosis patients have half of their embryos cultured in G1 culture media free of lipoic acid (i.e., the control), while the other half are cultured in G1 medium containing 10 μM lipoic acid (i.e., the elevated lipoic acid medium).

[4] = G1 + 10 μM LA for 48 hours, then G2

SMILES: O=C(O)CCCC[C@@H]1CCSS1 (racemic) [lipoic acid]
- effect of omission of lipoic acid on development of 8-cell hamster embryos (8-cell hamster embryos): no significant effect on the development at any stage of culture
- blastocyst cell number (CF1 mouse embryos [1]; 1 μM lipoic acid, at either 5% or 20% oxygen): no statistically significant increase in cell number
- blastocyst cell number (CF1 mouse embryos [1]; 10 μM lipoic acid, outbred (CF1) mouse embryos): significantly higher cell number
- blastocyst cell number versus control medium (CF1 mouse embryos [1]; 100 μM lipoic acid): significantly lower cell numbers
- Day 5 % Blast (CF1 mouse embryos [1]; lipoic acid 1 μM, 5% O2): 76.15%
- ICM (CF1 mouse embryos [1]; lipoic acid 1 μM, 5% O2): 16.83
- ICM ratio (CF1 mouse embryos [1]; lipoic acid 1 μM, 5% O2): 19.71%
- total cell # (CF1 mouse embryos [1]; lipoic acid 1 μM, 5% O2): 85.40
- trophectoderm (CF1 mouse embryos [1]; lipoic acid 1 μM, 5% O2): 68.57
- Day 5 % Blast (CF1 mouse embryos [1]; lipoic acid 1 μM, 20% O2): 59.18%
- ICM (CF1 mouse embryos [1]; lipoic acid 1 μM, 20% O2): 13.07
- ICM ratio (CF1 mouse embryos [1]; lipoic acid 1 μM, 20% O2): 19.12%
- total cell # (CF1 mouse embryos [1]; lipoic acid 1 μM, 20% O2): 68.37
- trophectoderm (CF1 mouse embryos [1]; lipoic acid 1 μM, 20% O2): 55.30
- Day 5 % Blast (CF1 mouse embryos [1]; lipoic acid 10 μM, 5% O2): 76.74%^#
- ICM (CF1 mouse embryos [1]; lipoic acid 10 μM, 5% O2): 22.49^####
- ICM ratio (CF1 mouse embryos [1]; lipoic acid 10 μM, 5% O2): 22.10%
- total cell # (CF1 mouse embryos [1]; lipoic acid 10 μM, 5% O2): 101.77^###
- trophectoderm (CF1 mouse embryos [1]; lipoic acid 10 μM, 5% O2): 79.28^##
- Day 5 % Blast (CF1 mouse embryos [1]; lipoic acid 10 μM, 20% O2): 61.47%^‡
- ICM (CF1 mouse embryos [1]; lipoic acid 10 μM, 20% O2): 16.4731^‡‡‡‡
- ICM ratio (CF1 mouse embryos [1]; lipoic acid 10 μM, 20% O2): 21.25%
- total cell # (CF1 mouse embryos [1]; lipoic acid 10 μM, 20% O2): 77.527^‡‡‡
- trophectoderm (CF1 mouse embryos [1]; lipoic acid 10 μM, 20% O2): 61.054^‡‡
- Day 5 % Blast (CF1 mouse embryos [1]; lipoic acid 100 μM, 5% O2): 53.13%
- ICM (CF1 mouse embryos [1]; lipoic acid 100 μM, 5% O2): 13.61
- ICM ratio (CF1 mouse embryos [1]; lipoic acid 100 μM, 5% O2): 18.33%
- total cell # (CF1 mouse embryos [1]; lipoic acid 100 μM, 5% O2): 74.21
- trophectoderm (CF1 mouse embryos [1]; lipoic acid 100 μM, 5% O2): 60.61
- Day 5 % Blast (CF1 mouse embryos [1]; lipoic acid 100 μM, 20% O2): 42.57%
- ICM (CF1 mouse embryos [1]; lipoic acid 100 μM, 20% O2): 10.2916
- ICM ratio (CF1 mouse embryos [1]; lipoic acid 100 μM, 20% O2): 19.07%
- total cell # (CF1 mouse embryos [1]; lipoic acid 100 μM, 20% O2): 53.9583
- trophectoderm (CF1 mouse embryos [1]; lipoic acid 100 μM, 20% O2): 43.6667
- inner cell mass number and percentage inner cell mass of total (CF1 mouse embryos [2]; 10 μM lipoic acid added to G1): increased inner cell mass number and percentage inner cell mass of total
- % Expanded on Day 4 (CF1 mouse embryos [2]; [4]): 39.7%
- % ICM (CF1 mouse embryos [2]; [4]): 31%**
- Day 3 % a.m. (CF1 mouse embryos [2]; [4]): 81.0%
- Day 4 blast % a.m. (CF1 mouse embryos [2]; [4]): 22.4%
- Day 4 blast % p.m. (CF1 mouse embryos [2]; [4]): 65.5%
- ICM (CF1 mouse embryos [2]; [4]): 16 ± 1
- TE (CF1 mouse embryos [2]; [4]): 34 ± 2
- Total (CF1 mouse embryos [2]; [4]): 50 ± 2
- Day 3 (% compacting) (CF1 mouse zygote; 5 μM LA): 38.9%
- Day 4 (% Total Blast) (CF1 mouse zygote; 5 μM LA): 51.6%
- Day 5 (% Hatching) (CF1 mouse zygote; 5 μM LA): 40.9%
- Day 5 (% Total Blast) (CF1 mouse zygote; 5 μM LA): 81.8%
- Total Cell Number (CF1 mouse zygote; 5 μM LA): 90.2 ± 4.8
- Day 3 (% compacting) (CF1 mouse zygote; 10 μM LA): 51.4%
- Day 4 (% Total Blast) (CF1 mouse zygote; 10 μM LA): 62.9%
- Day 5 (% Hatching) (CF1 mouse zygote; 10 μM LA): 40.0%
- Day 5 (% Total Blast) (CF1 mouse zygote; 10 μM LA): 92.7%
- Total Cell Number (CF1 mouse zygote; 10 μM LA): 91.3 ± 4.7
- Day 3 (% compacting) (CF1 mouse zygote; 20 μM LA): 26.5%
- Day 4 (% Total Blast) (CF1 mouse zygote; 20 μM LA): 42.9%
- Day 5 (% Hatching) (CF1 mouse zygote; 20 μM LA): 31.3%
- Day 5 (% Total Blast) (CF1 mouse zygote; 20 μM LA): 73.1%
- Total Cell Number (CF1 mouse zygote; 20 μM LA): 94.0 ± 7.2
- Day 3 (% compacting) (CF1 mouse zygote; 40 μM LA): 22.9%
- Day 4 (% Total Blast) (CF1 mouse zygote; 40 μM LA): 37.3%
- Day 5 (% Hatching) (CF1 mouse zygote; 40 μM LA): 28.4%
- Day 5 (% Total Blast) (CF1 mouse zygote; 40 μM LA): 74.6%
- Total Cell Number (CF1 mouse zygote; 40 μM LA): 69.4 ± 5.8
- Day 3 (% compacting) (CF1 mouse zygote; 80 μM LA): 22.9%
- Day 4 (% Total Blast) (CF1 mouse zygote; 80 μM LA): 4.6%
- Day 5 (% Hatching) (CF1 mouse zygote; 80 μM LA): 9.4%
- Day 5 (% Total Blast) (CF1 mouse zygote; 80 μM LA): 29.7%
- Total Cell Number (CF1 mouse zygote; 80 μM LA): 34.0
- blastocyst development by day 5 and cell number relative to the control (CF1 mouse zygote; above 5 to 40 μM): lower blastocyst development by day 5 and lower cell number relative to the control
- effect on progression to blastocyst stage, blastocyst cell number and inner cell mass (CF1 mouse zygote; lipoic acid at less than 5 μM): little, if any, effect
- day 4 blastocyst development and cell numbers (CF1 mouse zygote; lipoic acid greater than about 40 μM): lower day 4 blastocyst development and decreased cell numbers
- concentration of maximum improvement to embryo development (CF1 mouse zygote; within the range 5 μM to 40 μM): approximately 10 μM
- generation of ROS within the culture media [3]: concentration-dependent decrease in the generation of reactive oxygen
- effect of omission of lipoic acid on culture of rabbit morulae to expanded blastocysts (rabbit morulae): no significant effect
- human embryo development up to the 8-cell and blastocyst stage (human embryos): Embryos develop quicker up to the 8-cell and blastocyst stage
